Data: PMC10840338, “High efficacy of the F-ATP synthase inhibitor TBAJ-5307 against nontuberculous mycobacteria in vitro and in vivo” (The Journal of Biological Chemistry, 2024)

Molecular target: T1, F1FO-ATP synthase (FO domain, subunit c ring with subunit a) (Mycobacteroides abscessus, UniProt B1MLV6+B1MLV7)
T1 construct: gene atpE; native F1FO-ATP synthase in inverted-membrane vesicles of M. subsp. abscessus R variant; with subunit a (atpB); whole complex α3:β3:γ:ε:b-δ:b’:a:c9
Experiment: ATP synthesis inhibition in inverted-membrane vesicles (luminescence)
Format: biochemical

COc1cc([C@](O)(CCN(C)C)[C@@H](c2cc3cc(Br)ccc3nc2OC)c2ccnc(OC)c2OC)cc(OC)n1 [TBAJ-5307]
IC50: 1.4 nM
